From patent publication US7541359B2, “N-heteroarylpiperazinyl ureas as modulators of fatty acid amide hydrolase” (Janssen Pharmaceutica N.V., priority 2005, dated 2009)

Molecular target: T1, Rat FAAH (Rattus norvegicus, UniProt P97612)
T1 construct: expressed in transfected cells; host or cells: SK-N-MC cells, electroporated, G418-selected clones
T1 sequence (P97612 1-579): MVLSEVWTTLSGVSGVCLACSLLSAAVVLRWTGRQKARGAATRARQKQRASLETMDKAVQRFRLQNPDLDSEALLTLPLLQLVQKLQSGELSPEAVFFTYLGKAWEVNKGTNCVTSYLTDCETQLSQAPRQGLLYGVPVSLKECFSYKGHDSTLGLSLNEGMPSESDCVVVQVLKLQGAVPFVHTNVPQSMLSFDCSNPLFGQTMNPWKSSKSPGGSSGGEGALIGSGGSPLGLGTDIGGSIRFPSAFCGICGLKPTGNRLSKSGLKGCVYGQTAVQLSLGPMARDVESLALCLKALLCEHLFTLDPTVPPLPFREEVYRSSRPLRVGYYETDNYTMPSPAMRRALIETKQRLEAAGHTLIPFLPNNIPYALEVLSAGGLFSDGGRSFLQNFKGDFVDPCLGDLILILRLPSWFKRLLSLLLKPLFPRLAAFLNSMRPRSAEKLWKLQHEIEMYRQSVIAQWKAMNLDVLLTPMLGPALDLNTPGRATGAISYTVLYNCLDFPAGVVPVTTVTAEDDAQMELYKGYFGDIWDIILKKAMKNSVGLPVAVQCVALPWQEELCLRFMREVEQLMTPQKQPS
Test: Assay Method 3: FAAH assay, homogenate of SK-N-MC cells transfected with rat FAAH
Format: biochemical
Conditions: rat FAAH transfected SK-N-MC cell homogenate; 3H-AEA tracer 80 nM; rt 1 h
Protocol: Assay Method 3 A. Transfection of Cells with Rat FAAH
A 10-cm tissue culture dish with a confluent monolayer of SK-N-MC cells was split 2 days (d) prior to transfection. Using sterile technique, the media was removed and the cells were detached from the dish by the addition of trypsin. One fifth of the cells were then placed onto a new 10-cm dish. Cells were grown in a 37° C. incubator with 5% CO2 in Minimal Essential Media Eagle with 10% Fetal Bovine Serum. After 2 d, cells were approximately 80% confluent. These cells were removed from the dish with trypsin and pelleted in a clinical centrifuge. The pellet was re-suspended in 400 μL complete media and transferred to an electroporation cuvette with a 0.4 cm gap between the electrodes. Supercoiled rat FMH cDNA (1 μg) was added to the cells and mixed. The voltage for the electroporation was set at 0.25 kV, and the capacitance was set at 960 μF. After electroporation, the cells were diluted into complete media (10 mL) and plated onto four 10-cm dishes. Because of the variability in the efficiency of electroporation, four different concentrations of cells were plated. […] After 10 d, dishes were analyzed for surviving colonies of cells. Dishes with well-isolated colonies were used. Cells from individual colonies were isolated and tested.
The assay mixture consisted of 50 μL of the cell homogenate, 10 μL of the test compound, and 40 μL of anandamide [1-^3H-ethanolamine] (^3H-AEA, Perkin-Elmer, 10.3 Ci/mmol), which was added last, for a final tracer concentration of 80 nM. The reaction mixture was incubated at rt for 1 h. During the incubation, 96-well Multiscreen filter plates (catalog number MAFCNOB50: Millipore, Bedford, Mass., USA) were loaded with 25 μL of activated charcoal (Multiscreen column loader, catalog number MACL09625, Millipore) and washed once with 100 μL of MeOH. […] After the 1 h incubation, 60 μL of the reaction mixture were transferred to the charcoal plates, which were then assembled on top of the DYNEX plates using Centrifuge Alignment Frames (catalog number MACF09604, Millipore). The unbound labeled ethanolamine was centrifuged through to the bottom plate (5 min at 2000 rpm), which was preloaded with the scintillant, as described above. The plates were sealed and left at rt for 1 h before counting on a Hewlett Packard TopCount.

| SMILES | IC50 [nM] |
| --- | --- |
| Cc1ccc(-c2nsc(N3CCN(C(=O)Nc4ccccc4)CC3)n2)cc1 [Example 18, 4-(3-p-Tolyl-[1,2,4]thiadiazol-5-yl)-piperazine-1-carboxylic acid phenylamide] | 250 |
| COc1ccc(-c2nsc(N3CCN(C(=O)Nc4ccccc4)CC3)n2)cc1 [Example 19, 4-[3-(4-Methoxy-phenyl)-[1,2,4]thiadiazol-5-yl]-piperazine-1-carboxylic acid phenylamide] | 490 |
| O=C(Nc1ccccc1)N1CCN(c2nc(-c3ccc(Cl)cc3)ns2)CC1 [Example 20, 4-[3-(4-Chloro-phenyl)-[1,2,4]thiadiazol-5-yl]-piperazine-1-carboxylic acid phenylamide] | 350 |
| O=C(Nc1ccccc1F)N1CCN(c2nc(-c3ccccc3)ns2)CC1 [Example 21, 4-(3-Phenyl-[1,2,4]thiadiazol-5-yl)-piperazine-1-carboxylic acid (2-fluoro-phenyl)-amide] | 6 |
| CC(C)c1ccccc1NC(=O)N1CCN(c2nc(-c3ccccc3)ns2)CC1 [Example 23, 4-(3-Phenyl-[1,2,4]thiadiazol-5-yl)-piperazine-1-carboxylic acid (2-isopropyl-phenyl)-amide] | > 10000 |
| CN(C)c1ccc(NC(=O)N2CCN(c3nc(-c4ccccc4)ns3)CC2)cc1 [Example 26, 4-(3-Phenyl-[1,2,4]thiadiazol-5-yl)-piperazine-1-carboxylic acid (4-dimethylamino-phenyl)-amide] | > 10000 |
| COC(=O)c1ccc(NC(=O)N2CCN(c3nc(-c4ccccc4)ns3)CC2)cc1 [Example 30, 4-{[4-(3-Phenyl-[1,2,4]thiadiazol-5-yl)-piperazine-1-carbonyl]-amino}-benzoic acid methyl ester] | > 10000 |
| O=C(Nc1ccccc1)N1CCN(c2nc(-c3cccc([N+](=O)[O-])c3)ns2)CC1 [Example 37, 4-[3-(3-Nitro-phenyl)-[1,2,4]thiadiazol-5-yl]-piperazine-1-carboxylic acid phenylamide] | > 10000 |
